Source: ChEMBL document CHEMBL3627700, “Discovery of novel N-aryl piperazine CXCR4 antagonists” (Bioorg Med Chem Lett, 2015)

How the values were obtained:
[1] = system: Human immunodeficiency virus 1; assay: Antiviral activity against HIV1 3B assessed as inhibition of viral attachment to human MAGI cells; type: functional, organism-based; conditions: Human immunodeficiency virus 1, 3B
[2] = Cytotoxicity against human MAGI cells; type: cell-based; conditions: read-out: TC50 (the source's name)
[3] = molecular target: T1, C-X-C chemokine receptor type 4 (Homo sapiens, UniProt P61073); assay: Antagonist activity at CXCR4 in human Chem-1 cells assessed as inhibition of CXCL12-induced calcium flux; type: functional, cell-based
T1 sequence (P61073 whole entry): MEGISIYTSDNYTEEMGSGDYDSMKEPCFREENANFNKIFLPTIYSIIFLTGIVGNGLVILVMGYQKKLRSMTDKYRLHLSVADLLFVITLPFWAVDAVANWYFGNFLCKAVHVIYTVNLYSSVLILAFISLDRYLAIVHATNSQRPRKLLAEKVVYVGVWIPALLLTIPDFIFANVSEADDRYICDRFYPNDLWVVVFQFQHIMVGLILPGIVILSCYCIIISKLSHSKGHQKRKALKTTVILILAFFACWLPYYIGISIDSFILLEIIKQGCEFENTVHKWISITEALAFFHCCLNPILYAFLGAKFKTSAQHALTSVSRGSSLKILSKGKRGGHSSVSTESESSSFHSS

[4] = Cytotoxicity against human Chem1 cells; type: cell-based; conditions: read-out: TC50 (the source's name)
CYP2C19 = CYP2C19 (Homo sapiens, UniProt P33261); assay: Inhibition of human CYP2C19 at 1 uM; type: ADME
Sequence of CYP2C19 (P33261 whole entry): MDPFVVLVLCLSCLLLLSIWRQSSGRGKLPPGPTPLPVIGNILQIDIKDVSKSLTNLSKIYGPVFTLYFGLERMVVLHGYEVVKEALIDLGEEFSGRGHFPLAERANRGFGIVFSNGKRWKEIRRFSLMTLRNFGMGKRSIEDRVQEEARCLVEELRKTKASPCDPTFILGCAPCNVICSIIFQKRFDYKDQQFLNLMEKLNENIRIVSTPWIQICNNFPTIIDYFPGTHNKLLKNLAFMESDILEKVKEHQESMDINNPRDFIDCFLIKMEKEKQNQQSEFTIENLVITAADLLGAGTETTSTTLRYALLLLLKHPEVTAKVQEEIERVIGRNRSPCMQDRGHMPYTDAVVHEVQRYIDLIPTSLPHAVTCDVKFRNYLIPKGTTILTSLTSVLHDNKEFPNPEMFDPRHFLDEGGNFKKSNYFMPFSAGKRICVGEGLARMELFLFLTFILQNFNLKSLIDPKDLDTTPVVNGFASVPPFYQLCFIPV

CYP2D6 = CYP2D6 (Homo sapiens, UniProt P10635); assay: Inhibition of human CYP2D6 at 1 uM
Sequence of CYP2D6 (P10635 whole entry): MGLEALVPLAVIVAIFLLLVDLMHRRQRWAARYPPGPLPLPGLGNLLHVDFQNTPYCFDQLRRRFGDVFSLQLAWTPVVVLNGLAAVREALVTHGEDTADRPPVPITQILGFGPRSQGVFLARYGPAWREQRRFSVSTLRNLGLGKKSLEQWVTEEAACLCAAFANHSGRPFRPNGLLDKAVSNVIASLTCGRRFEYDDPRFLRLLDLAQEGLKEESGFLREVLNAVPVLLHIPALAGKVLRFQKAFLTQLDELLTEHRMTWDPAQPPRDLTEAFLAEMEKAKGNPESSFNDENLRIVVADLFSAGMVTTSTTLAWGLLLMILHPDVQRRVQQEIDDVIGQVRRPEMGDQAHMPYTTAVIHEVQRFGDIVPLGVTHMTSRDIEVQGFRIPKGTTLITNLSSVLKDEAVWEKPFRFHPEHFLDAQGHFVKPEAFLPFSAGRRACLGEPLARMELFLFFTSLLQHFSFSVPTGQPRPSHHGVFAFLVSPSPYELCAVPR

CYP3A4 = CYP3A4 (Homo sapiens, UniProt P08684); assay: Inhibition of human CYP3A4 at 1 uM
Sequence of CYP3A4 (P08684 whole entry): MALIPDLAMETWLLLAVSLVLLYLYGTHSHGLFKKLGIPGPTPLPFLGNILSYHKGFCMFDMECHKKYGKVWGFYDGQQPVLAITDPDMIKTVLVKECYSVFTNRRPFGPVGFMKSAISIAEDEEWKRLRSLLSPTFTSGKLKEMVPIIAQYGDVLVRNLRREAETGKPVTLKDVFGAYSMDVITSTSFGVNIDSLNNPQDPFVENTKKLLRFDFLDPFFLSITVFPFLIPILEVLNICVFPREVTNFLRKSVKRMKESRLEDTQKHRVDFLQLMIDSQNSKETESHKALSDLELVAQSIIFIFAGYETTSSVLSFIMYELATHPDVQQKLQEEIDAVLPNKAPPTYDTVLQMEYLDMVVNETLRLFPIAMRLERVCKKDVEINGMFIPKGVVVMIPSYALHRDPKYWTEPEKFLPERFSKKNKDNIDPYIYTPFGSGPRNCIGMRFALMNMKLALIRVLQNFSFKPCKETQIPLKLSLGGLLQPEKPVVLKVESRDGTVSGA

hERG (KCNH2) [5] = molecular target: T2, hERG (KCNH2) (Homo sapiens, UniProt Q12809); assay: Displacement of [3H]-dofetilide from human ERG in HEK293 cells at 1 uM; type: cell-based; conditions: HEK293 cells that express hERG, probe [3H]-dofetilide
T2 sequence (Q12809 whole entry): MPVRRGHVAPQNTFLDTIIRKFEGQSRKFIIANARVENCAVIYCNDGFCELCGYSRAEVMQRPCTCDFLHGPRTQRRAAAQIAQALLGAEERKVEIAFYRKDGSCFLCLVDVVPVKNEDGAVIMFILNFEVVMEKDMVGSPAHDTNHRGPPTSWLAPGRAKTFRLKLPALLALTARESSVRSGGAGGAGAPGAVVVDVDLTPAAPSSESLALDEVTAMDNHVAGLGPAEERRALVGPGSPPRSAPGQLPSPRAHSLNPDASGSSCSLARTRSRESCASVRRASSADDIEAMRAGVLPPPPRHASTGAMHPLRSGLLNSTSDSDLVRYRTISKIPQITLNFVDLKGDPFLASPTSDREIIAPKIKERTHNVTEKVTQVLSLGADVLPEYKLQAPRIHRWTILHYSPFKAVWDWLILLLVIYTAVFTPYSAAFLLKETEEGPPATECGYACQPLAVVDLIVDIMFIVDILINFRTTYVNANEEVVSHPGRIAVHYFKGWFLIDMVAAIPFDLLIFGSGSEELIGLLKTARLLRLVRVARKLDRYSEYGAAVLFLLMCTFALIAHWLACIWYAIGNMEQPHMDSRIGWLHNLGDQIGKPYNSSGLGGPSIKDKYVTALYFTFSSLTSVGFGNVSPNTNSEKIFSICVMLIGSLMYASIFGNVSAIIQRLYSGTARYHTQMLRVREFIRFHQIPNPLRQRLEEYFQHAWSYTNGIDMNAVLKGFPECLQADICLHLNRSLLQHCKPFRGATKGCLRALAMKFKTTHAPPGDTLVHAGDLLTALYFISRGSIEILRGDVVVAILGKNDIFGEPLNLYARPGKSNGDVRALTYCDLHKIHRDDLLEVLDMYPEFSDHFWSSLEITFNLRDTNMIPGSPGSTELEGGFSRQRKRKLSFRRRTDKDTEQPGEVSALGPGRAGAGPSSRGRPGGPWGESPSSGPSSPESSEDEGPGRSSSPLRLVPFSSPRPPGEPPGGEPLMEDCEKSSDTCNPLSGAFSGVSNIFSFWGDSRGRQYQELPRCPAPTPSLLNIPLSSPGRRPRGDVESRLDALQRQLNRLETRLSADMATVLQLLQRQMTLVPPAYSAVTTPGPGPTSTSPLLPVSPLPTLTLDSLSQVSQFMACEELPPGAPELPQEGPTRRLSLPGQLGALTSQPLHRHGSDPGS

hERG (KCNH2) [6] = molecular target: T2, hERG (KCNH2); assay: Displacement of [3H]-dofetilide from human ERG in HEK293 cells at 10 uM; type: cell-based; conditions: HEK293 cells that express hERG, probe [3H]-dofetilide
[7] = Selectivity ratio of IC50 for CXCR4 in human Chem-1 cells to IC50 for HIV1 3B assessed as inhibition of viral attachment to human MAGI cells; type: cell-based
[8] = system: Human immunodeficiency virus 1; assay: Antiviral activity against HIV1 3B infected in PBMC; type: functional, organism-based; conditions: Human immunodeficiency virus 1, 3B
[9] = molecular target: T1, C-X-C chemokine receptor type 4
Description: Displacement of [125I]-SDF-1 from CXCR4 (unknown origin)

Row | SMILES | IC50 [1] | IC50 [3] | CC50 [2] | CC50 [4] | other results
1 | NCCCCN(C[C@H]1CN(C(=O)OCc2ccccc2)CCN1)[C@H]1CCCc2cccnc21 | 0.34 µM | 0.018 µM | > 10 µM | > 10 µM | 
2 | NCCCCN(C[C@@H]1CN(S(=O)(=O)c2ccccc2)CCN1)[C@H]1CCCc2cccnc21 |  | 0.023 µM | > 10 µM | > 10 µM | inhibition at 1 µM (CYP2C19): 2%; inhibition at 1 µM (CYP2D6): 41%; inhibition at 1 µM (CYP3A4): 0%; inhibition at 1 µM (hERG (KCNH2) [5]): 37%; inhibition at 10 µM (hERG (KCNH2) [6]): 79%
3 | NCCCCN(C[C@H]1CN(S(=O)(=O)c2cc3ccccc3s2)CCN1)[C@H]1CCCc2cccnc21 | 3.44 µM | 0.039 µM | > 10 µM | > 10 µM | 
4 | NCCCCN(C[C@H]1CN(C(=O)Nc2ccccc2)CCN1)[C@H]1CCCc2cccnc21 | 0.35 µM |  | > 10 µM | > 10 µM | 
5 | NCCCCN(C[C@H]1CNCCN1C(=O)c1ccccc1)[C@H]1CCCc2cccnc21 | > 100 µM |  | > 10 µM | > 10 µM | 
6 | NCCCCN(C[C@@H]1CNCCN1C(=O)c1ccccc1)[C@H]1CCCc2cccnc21 | > 100 µM |  | > 10 µM | > 10 µM | 
7 | NCCCCN(C[C@H]1CN(C(=O)c2ccccc2)CCN1)[C@H]1CCCc2cccnc21 | 0.06 µM | 0.002 µM | > 10 µM | > 10 µM | 
8 | NCCCCN(C[C@H]1CN(S(=O)(=O)c2ccccc2)CCN1)[C@H]1CCCc2cccnc21 |  | 0.002 µM | > 10 µM | > 10 µM | 
9 | NCCCCN(C[C@@H]1CN(C(=O)c2ccccc2)CCN1)[C@H]1CCCc2cccnc21 | 0.02 µM | 0.006 µM | > 10 µM | > 10 µM | Ratio IC50 [7]: 0.3; IC50 [8]: 0.088 µM; inhibition at 1 µM (CYP2C19): 2%; inhibition at 1 µM (CYP2D6): 19%; inhibition at 1 µM (CYP3A4): 0%; inhibition at 1 µM (hERG (KCNH2) [5]): 18%; inhibition at 10 µM (hERG (KCNH2) [6]): 55%
10 | NCCCCN(C[C@H]1CN(S(=O)(=O)c2ccc3ccccc3c2)CCN1)[C@H]1CCCc2cccnc21 | 4.6 µM | 0.071 µM | > 10 µM | > 10 µM | 
11 | NCCCCN(C[C@@H]1CN(C(=O)OCc2ccccc2)CCN1)[C@H]1CCCc2cccnc21 | 1.35 µM |  | > 10 µM | > 10 µM | 
12 | NCCCCN(C[C@H]1CN(S(=O)(=O)c2ccc(Cl)cc2)CCN1)[C@H]1CCCc2cccnc21 | 0.05 µM | 0.002 µM | > 10 µM | > 10 µM | 
13 | NCCCCN(Cc1nc2ccccc2[nH]1)[C@H]1CCCc2cccnc21 [MAVORIXAFOR] |  |  |  |  | inhibition at 1 µM (CYP2C19): 20%; inhibition at 1 µM (CYP2D6): 100%

The next lines start with results.

Row | IC50 [1] | IC50 [3] | SMILES | CC50 [2] | CC50 [4] | other results
14 | 0.15 µM | 0.035 µM | NCCCCN(C[C@@H]1CN(C(=O)c2ccco2)CCN1)[C@H]1CCCc2cccnc21 | > 10 µM | > 10 µM | 
15 | 0.31 µM | 0.255 µM | NCCCCN(C[C@H]1CNCCN1)[C@H]1CCCc2cccnc21 | > 10 µM | > 10 µM | 
16 | 1.1 µM | 1.2 µM | NCCCCN(C[C@@H]1CNCCN1)[C@H]1CCCc2cccnc21 | > 10 µM | > 10 µM | 
17 |  | 0.19 µM | NCCCCN(C[C@@H]1CN(Cc2ccccc2)CCN1)[C@H]1CCCc2cccnc21 | > 10 µM | > 10 µM | IC50 [9]: 2.92 µM
18 | 0.21 µM |  | NCCCCN(CC1CN(C(=O)c2ccco2)CCN1)[C@H]1CCCc2cccnc21 (mixture of isomers) | > 10 µM | > 10 µM | 
19 |  | 0.23 µM | NCCCCN(C[C@H]1CN(Cc2ccccc2)CCN1)[C@H]1CCCc2cccnc21 | > 10 µM | > 10 µM | 
20 | 0.72 µM | 0.13 µM | NCCCCN(CC1CN(c2ccccc2)CCN1)[C@H]1CCCc2cccnc21 (mixture of isomers) | > 10 µM | > 10 µM | 
